Reference: patent publication US20150253330A1, “PRE-SELECTION OF SUBJECTS FOR THERAPEUTIC TREATMENT WITH AN HSP90 INHIBITOR BASED ON HYPOXIC STATUS” (Synta Pharmaceuticals Corp., priority 2012, published 2015)
“Also recorded” adds a separate entry of the source.

Experiments:
[1] = system: human KRAS mutant NSCLC tumor xenografts; assay: KRAS mutant NSCLC tumor xenografts in vivo; parameters: species or system mice
Description: Female immunodeficient CD-1 (nude) mice (Charles River Laboratories, Wilmington, Mass.) were maintained in a pathogen-free environment, and all in vivo procedures were approved by the Synta Pharmaceuticals Corp. Institutional Animal Care and Use Committee. A549 NSCLC cells (7.5×10^6) were subcutaneously implanted into the animals. Mice bearing established tumors (100-200 mm^3) were randomized into treatment groups of 8 and i.v. dosed via the tail vein with either vehicle, ganetespib formulated in 10/18 DRD (10% DMSO, 18% Cremophor RH 40, 3.6% dextrose, 68.4% water) or p.o. dosed with BEZ235 formulated in PEG300/NMP (90% PEG300, 10% N-Methylpyrrolidone). Animals were treated with ganetespib at 50 mg/kg weekly or BEZ235 at 10 mg/kg 5 times a week, either alone or in combination. Tumor growth inhibition was determined as described previously. See Proia et al, PLoS One. 2011; 6(4):e18552.

[2] = Phase 2 study in solid tumors, twice-weekly infusion (safety, PK, response); format: in vivo, human; settings: human, plasma, intravenous; patients, 1 hr infusion; read-out: Mean terminal half-life
Description: Patients with solid tumors who had exhausted standard treatment options received ganetespib as a 1 hr infusion twice-weekly for 3 weeks (weeks) of a 28 day cycle until disease progression. Serial PK and pharmacodynamic samples were obtained during cycle 1. Safety assessments included frequency and grade of adverse events (AEs), laboratory parameters and ECG changes.

SK-BR-3 = assay: 72 hr viability by CTG, breast cancer cell line; format: cell-based; settings: Homo sapiens, SK-BR-3, Luminal, HER2+
Procedure: (§1) Breast cancer is a heterogeneous disease historically broken down into 4 subtypes. Various compounds were tested for their effects in cell viability assays using various breast cancer cell lines. Cellular viability was assessed using the CellTiter-Glo® Luminescent Cell Viability Assay (Promega, Madison, Wis., USA) according to the manufacturer's protocol. KRAS mutant NSCLC cell lines were seeded into 96-well plates based on optimal growth rates determined empirically for each line. Twenty-four hours after plating, cells were dosed with graded concentrations of ganetespib for 72 h. CellTiter-Glo® was added (50% v/v) to the cells, and the plates incubated for 10 min prior to luminescent detection in a SpectraMax® Plus 384 microplate reader (Molecular Devices, Sunnyvale, Calif., USA). Data were normalized to percent of control and IC50 values used to determine the sensitivity of each line. For the comparative analysis study with MEK and PI3K/mTOR inhibitors, A549, H2009, Calu-1, and H358 cells were treated with graded concentrations of ganetespib, AZD6244, or BEZ235 for 72 h and cell viability measured as above.
(§2) Breast cancer, cell lines, marker status, and IC50 in response to ganetespib at 72 hr (viability by CTG).

OCUB-M = assay: 72 hr viability by CTG, breast cancer cell line; format: cell-based; settings: Basal
Procedure: as §1, §2

BT-474 = assay: 72 hr viability by CTG, breast cancer cell line; format: cell-based; settings: Homo sapiens, BT-474, Luminal, ER+ PR+ HER2+, viability by CTG (2D)
Procedure: as §1, §2

MCF7 = assay: 72 hr viability by CTG, breast cancer cell line; format: cell-based; settings: Homo sapiens, MCF7, Luminal, ER+ PR+
Procedure: as §1, §2

MDA-MB-468 = assay: 72 hr viability by CTG, breast cancer cell line; format: cell-based; settings: Homo sapiens, MDA-MB-468, Basal A
Procedure: as §1, §2

HGC-27 = assay: 72 hr viability by Syto60, gastric cell line; format: cell-based; settings: Homo sapiens, Syto60 (lower), read-out: ganetespib IC50
SNU-5 = assay: 72 hr viability by Syto60, gastric cell line; format: cell-based; settings: Homo sapiens, Syto60 (lower), read-out: ganetespib IC50
GT3TKB = assay: 72 hr viability by Syto60, gastric cell line; format: cell-based; settings: Syto60 (lower), read-out: ganetespib IC50
[3] = system: Detroit 562 H/N cancer cells; assay: Single agent viability assay, 72 hr, head and neck cancer cells; format: cell-based
Description: (§3) Head and neck (H/N) cancer refers to a group of biologically similar cancers originating from the upper autodigestive tract. First line therapies include EGFR inhibitors and platins. Modulation of EGFR and other client proteins by ganetespib was investigated in Detroit 562 H/N cancer cells.

[4] = system: EGFR and other client proteins; assay: Western blot of Hsp90 client proteins in Detroit 562 cells, 24 hr; format: cell-based; settings: Detroit 562, 24 hr
Description: as §3

GCIY = assay: 72 hr viability by Syto60, gastric cell line; format: cell-based; settings: Homo sapiens, Syto60 (lower), read-out: ganetespib IC50
angiogenesis = assay: Egg CAM and matrigel plug angiogenesis assays; parameters: species or system chicken; settings: all three models
Procedure: The conditioned medium was collected from control and treated cells. 100 μl of conditioned medium, either control or treated, was injected into fertilized chicken eggs. Eggs were incubated at 37° C. for 15 days, then dissected and the membrane was photographed.
(§4) It's postulated that functional inhibition of Hsp90 by ganetespib can inhibit angiogenesis and growth in vitro and in vivo models of pancreatic cancer. PANC-1 and HPAC cell lines were treated with vehicle or G (50 nM) for 24 h and lysates were analyzed by Western blot. Egg CAM and matrigel plug assays were performed to quantify the effects of ganetespib on angiogenesis. Efficacy of ganetespib (100 mg/kg) was assessed in mice bearing HPAC and ASPC-1 xenograft.
Mia-PaCa2, PANC-1 and HPAC cells were treated with Ganetespib (50 nM) or control for 24 hours, the conditioned medium was harvested and 100 μl of conditioned or control medium was injected into fertilized chicken eggs (Avian Vaccine Service center, North Franklin, Conn.). Eggs were incubated at 37° C. for 15 days and dissected. Chorioallantoic membrane was photographed.

HIF-1α and VEGF = assay: Western blot of HIF-1α and VEGF in pancreatic cancer cell lines; format: cell-based; settings: 50 nM, 24 h
Procedure: as §4
Primary antibodies specific to Hsp90, HIF-1α, VEGF, Actin and HRP conjugated secondary antibodies (Santa Cruz Biotechnology, California and Cell Signaling Technology, USA) were used for Western blot. Ganetespib was provided by Synta Pharmaceuticals, Lexington, Mass. and Matrigel was purchased from BD Biosciences.
Cells were harvested at the end of treatment and lysed in the RIPA protein extraction buffer (Sigma-Aldrich, Saint Louis, Mo., USA) containing the protease inhibitor cocktail. Equal amounts of protein fractions of lysates were resolved over SDS-PAGE and transferred on to PVDF membrane. Membranes were incubated with primary antibodies followed by HRP-conjugated secondary antibodies. Bound antibodies were visualized using enhanced chemiluminescence. To confirm equal loading, membranes were verified and re-probed with an antibody specific for the housekeeping gene, anti-β-actin.

[5] = system: KRAS substrates, including BRAF and CRAF; assay: KRAS substrates at the molecular level in KRAS mutant NSCLC cells; format: cell-based

Compound: CC(C)c1cc(-c2nnc(O)n2-c2ccc3c(ccn3C)c2)c(O)cc1O [ganetespib]
- Tumor growth inhibition in the combination arm ([1]; ganetespib combined with a PI3K/mTOR inhibitor): considerable improvement in tumor growth inhibition
- Growth of KRAS mutant NSCLC tumor xenografts ([1]; single agent): effectively suppressed the growth
- Tumor regression ([1]; single agent): did not induce tumor regression
- half-life [2]: 10 to 14 h
- IC50 (SK-BR-3): 10 nM
- IC50 (OCUB-M): 39 nM
- IC50 (BT-474): 13 nM
- IC50 (MCF7): 25 nM
- IC50 (MDA-MB-468): 27 nM
- IC50 (HGC-27): 11 nM
- IC50 (SNU-5): 31 nM
- IC50 (GT3TKB): 6 nM
- Cell viability after a 72 hr exposure ([3]; Detroit 562): A fraction of cells remained viable
- IC50 ([3]; Homo sapiens, Detroit 562, single agent viability, 72 hr): 42 nM
- Modulation of EGFR and other client proteins [4]: depletion of EGFR and JAK2
- IC50 (GCIY): 9 nM
- Angiogenesis compared to vehicle (angiogenesis): reduced angiogenesis
- HIF-1α and VEGF protein levels (HIF-1α and VEGF): decreased HIF-1α a and VEGF expression; also recorded: decreased levels
- Effect on KRAS substrates [5]: induced the destabilization of several KRAS substrates, including BRAF and CRAF
